In one data set the test system is H3K27me3. The conditions noted are these: cited from earlier work.
For data set [1], the system named is IL-36-mediated psoriasis-like dermatitis. The data set is described as follows: IL-36α-triggered psoriasis-like dermatitis mouse model, topical treatment of ears. Type of data set: in vivo, C57BL/6 mice. How it is done:
Experiments were conducted in accordance with the German law guidelines of animal care. […] At day 7, mice were sacrificed and analysed. For IL-36α-mediated psoriasis induction, ears of male C57BL/6 mice (8-12 weeks old) were treated by intradermal injections using 1 μg murine IL-36α (aa 8-160, R&D) or PBS control for 5 consecutive days. […] Inhibitors were topically applicated 6 h before intradermal injections of IL-36α or PBS were applied. Mice were sacrificed and analysed at day 6. Ear sections from mice were fixed in 10% formalin (Carl Roth) and subsequently embedded in paraffin. 5-μm sections were prepared and incubated with the following antibodies from Cell Signaling: pSTAT3 (9145), pRB (8516) and H3K27me3 (9733). For staining of human skin samples, EZH2 antibody (Cell Signaling, 5246) was used. Antigen retrieval was performed in 1 mM EDTA pH 8.0 for pSTAT3, and 10 mM citrate buffer pH 6.0+0.5% Triton X-100 for EZH2, H3K27me3 and pRB. After incubation with peroxidase-coupled secondary antibodies, sections were stained with DAB substrate.

Data set [2] deals with non-Hodgkin's lymphoma / DLBCL cell lines. The conditions noted are these: cited from earlier work; for effect on DLBCL cells with EZH2 (Y641) mutations: diffused large B cell lymphoma cells.
Data set [3] concerns IMQ-induced psoriasis-like skin inflammation. Put plainly: Imiquimod (IMQ)-mediated psoriasis mouse model, topical treatment of ears. It is filed as in vivo, C57BL/6 mice. How it is done:
Experiments were conducted in accordance with the German law guidelines of animal care. […] At day 7, mice were sacrificed and analysed. For IL-36α-mediated psoriasis induction, ears of male C57BL/6 mice (8-12 weeks old) were treated by intradermal injections using 1 μg murine IL-36α (aa 8-160, R&D) or PBS control for 5 consecutive days. […] Inhibitors were topically applicated 6 h before intradermal injections of IL-36α or PBS were applied. Mice were sacrificed and analysed at day 6.
Sample preparation was performed as described. The following anti-mouse antibodies from BioLegend were used: anti-CD45 FITC (103107), anti-CD11 b PacificBlue (101223), anti-Ly6G PE (127607), anti-F4/80 APC (123115), anti-CD11c Pacific Blue (117322), anti-MHC-II APC (107613), anti-CD172α PE (144011) and anti-Silec-H PE (129605). Anti-PDCA-1 APC (17-2092-80) and anti-αβTCR PE (HM3628) were purchased from Invitrogen, and anti-γδ-TCR APC (17-5711-82) from Sigma. Data was acquired on a LSRII flow cytometer (Becton Dickson).
Ear sections from mice were fixed in 10% formalin (Carl Roth) and subsequently embedded in paraffin. 5-μm sections were prepared and incubated with the following antibodies from Cell Signaling: pSTAT3 (9145), pRB (8516) and H3K27me3 (9733). For staining of human skin samples, EZH2 antibody (Cell Signaling, 5246) was used. Antigen retrieval was performed in 1 mM EDTA pH 8.0 for pSTAT3, and 10 mM citrate buffer pH 6.0+0.5% Triton X-100 for EZH2, H3K27me3 and pRB. After incubation with peroxidase-coupled secondary antibodies, sections were stained with DAB substrate.

The conditions of data set [4]: experimental animals; cited from earlier work.
Data set [5] deals with B cell lymphoma xenografts. The conditions noted are these: cited from earlier work.
A further data set has as its system SCLC cell lines. The conditions noted are these: three SCLC cell lines; cited from earlier work.
Data set [6] deals with prostate cancer cell lines. The note with it: in vitro; cited from earlier work.
A further data set deals with cutaneous melanomas. The note with it: mice; cited from earlier work.
Data set [7] concerns wild-type and mutant EZH2. The conditions noted are these: cited from earlier work.
The mark [8] stands for this setting: flow cytometry of ears at day 7.

“Also recorded” adds a separate entry of the source. Where only a bound is given, the exact number is not on record here.

As to `CCS(=O)(=O)N1CCC([C@@H](C)n2c(C)c(C(=O)NCc3c(OC)cc(C)[nH]c3=O)c3ccccc32)CC1` [CPI-169], the “cellular H3K27me3 / H3K27 methylation” value in the data set on H3K27me3 is recorded as “decreases”. In addition, the “IL-36-mediated expression of IκBζ, phosphorylation of EZH2 at T345 and activation of STAT3 (pSTAT3 Y705) in skin” value in data set [1] (immunoblot of ear skin at day 6) is reported as “suppressed”. Moreover, the “keratinocyte hyperproliferation and immune cell infiltration” value in [1] (intradermal IL-36α 5 days, topical inhibitor, abemaciclib 0.02 mg, CPI-169 0.05 mg, day 6) is reported as “effectively blocked”. In addition, in [1] (qPCR of skin samples), the “IκBζ target gene expression and key cytokine expression (Il17a, Il23a)” value is “effectively blocked”. In addition, the “effect on non-Hodgkin's lymphoma (NHL) cell lines” value in data set [2] (large panel of NHL cell lines) was “triggering cell cycle arrest and ultimately resulting in apoptosis”. For the same compound, the “H3K27me3 expression in the epidermis (EZH2 inhibition)” value in data set [3] (ear skin sections of treated mice) is recorded as “loss”. In addition, in data set [3] (setting [8]), the “immune cell infiltration (neutrophils, macrophages, T cells)” value is listed as “fully abrogated”; the “number of infiltrating plasmacytoid (pDC) and myeloid dendritic cells (mDC)” value is given as “significantly suppressed”. For the same compound, the “IκBζ expression, phosphorylation of EZH2 at T345 and of STAT3 at Y705 in the skin” value in [3] (immunoblot of skin tissue at day 7) is “completely abrogated”. In data set [3] (qPCR of skin samples at day 7), the “expression of IκBζ target genes (Cxcl2, Cxcl5) and cytokines (Il17a, Il23a) in skin” value is on record as “significantly downregulated”. Further, the “psoriasis-like skin inflammation (ear thickening, keratinocyte hyperproliferation, immune cell infiltration)” value in [3] (topical daily for 6 days with IMQ, abemaciclib 0.02 mg, CPI-169 0.05 mg per ear/day, analysed day 7) is “completely suppressed; also recorded: completely suppressing”.

For `COc1cc(C)[nH]c(=O)c1CNC(=O)c1c(C)n([C@H](C)C2CCN(CC(F)(F)F)CC2)c2ccccc12` [CPI-1205], the tolerability entry in data set [4] is reported as “well-tolerated”.

As to `CCc1c(N(CC)C2CCOCC2)cc2oc(C3CCN(C(C)C)CC3)cc2c1C(=O)NCc1c(C)cc(C)[nH]c1=O` [EBI-2511], the “efficacy in Pfeiffer tumor Xenograft models” value in [5] (mouse) is “high in vivo efficacy”.

With `CCC(CC)n1ccc2c(C(=O)NCc3c(C)cc(C)[nH]c3=O)cc(C#N)cc21` [EI1], the “cellular H3K27me3 / H3K27 methylation” value in the data set on H3K27me3 is reported as “blocks”. Moreover, in [2], the “effect on DLBCL cells with EZH2 (Y641) mutations” value (from here on “effect on DLBCL cells with EZH2”) was “decreased proliferation, cell cycle arrest, and apoptosis”.

With `CCN(c1cc(C#CCN2CCOCC2)cc(C(=O)NCc2c(C)cc(C)[nH]c2=O)c1C)[C@H]1CC[C@H](N(C)CCOC)CC1` [EPZ011989], in [5] (mouse), the “tumor growth, xenograft model of human B cell lymphoma” value is listed as “significant tumor growth inhibition”.

For `CC[C@H](C)n1cc(C)c2c(C(=O)NCc3c(C)cc(C)[nH]c3=O)cc(-c3ccc(N4CCNCC4)nc3)cc21` [GSK126], the “growth of SCLC cell lines” value in the data set with SCLC cell lines is listed as “induces growth inhibition”. For the same compound, the “growth of EZH2 mutant DLBCL xenografts” value in data set [5] (mice) was “effectively inhibits”. In data set [2], the “effect on DLBCL cells with EZH2” value is “effectively inhibits proliferation”.

`CCCc1cc(C)[nH]c(=O)c1CNC(=O)c1cc(-c2ccnc(N3CCN(C)CC3)c2)cc2c1cnn2C(C)C` [GSK343]: in the data set on H3K27me3 (breast cancer cells in vitro), the H3K27me3 levels result is on record as “decrease”. In data set [6], the “proliferation of prostate cancer cell lines” value was “inhibits proliferation”.

For `Cc1cc(C)c(CNC(=O)c2cc(-c3ccc(N4CCN(C)CC4)nc3)cc3c2c(C)cn3C(C)C)c(=O)[nH]1` [GSK503], the “growth and metastasis of cutaneous melanomas” value in the data set on cutaneous melanomas was “inhibits growth and metastasis”.

As to `Cc1cc(C)c(CN2CCc3c(Cl)cc(-c4c(C)noc4C)c(Cl)c3C2=O)c(=O)[nH]1` [PF-06726304], the “efficacy in diffuse large B-cell lymphoma Karpas-422 tumor model” value in data set [5] (mouse, in vivo) is “good efficacy”.

Turning to `CCCc1cc(C)[nH]c(=O)c1CNC(=O)c1cc(-c2ccc(N3CCN(C(C)C)CC3)nc2)cc2c1cnn2C(C)C` [UNC1999], the “difference in potency, wild-type vs mutant Y641N EZH2 methyltransferase activity” value in data set [7] is below 5 fold. For the same compound, the “effect on DLBCL cells with EZH2” value in [2] is recorded as “selectively killed”.

The values above are taken from patent publication US20220280526A1, “AGENT FOR THE TREATMENT OF PSORIASIS” (EBERHARD KARLS UNIVERSITAET TUEBINGEN MEDIZINISCHE FAKULTAET, priority 2019, published 2022).
